Data taken from PMC11728707, “Chemical Composition and Assessment of the Anti-Inflammatory, Antioxidant, Cytotoxic and Skin Enzyme Inhibitory Activities of Citrus sinensis (L.) Osbeck Essential Oil and Its Major Compound Limonene” (Pharmaceuticals, 2024).

Molecular target: T1, tyrosinase
T1 construct: gene PPO3
Experiment: spectrophotometric L-DOPA oxidation assay, […] nm
Format: biochemical
Conditions: 5 mM L-DOPA, 50 mM phosphate pH 6.5, 37 °C

Tyrosinase [µg/mL] | SMILES
86.07 ± 1.53 | C=C(C)[C@H]1CC=C(C)CC1 [Limonene]
111.03 ± 0.1 | O=c1c(O)c(-c2ccc(O)c(O)c2)oc2cc(O)cc(O)c12 [Quercetin]
